Usually pIC50 stands for the negative decadic logarithm of the IC50, by convention in mol/L. Higher therefore signals a low IC50.

Structures are written as SMILES. pIC50: −log10 of the molar value. Where a SMILES comes first, the peptide text is derived from it. [ ]: non-standard residue; d: D form. The star is where a group is joined. pY = N[C@@H](Cc1ccc(OP(=O)(O)O)cc1)C(=O)O; 2Abz = Nc1ccccc1C(=O)O; Cbz = O=C(OCc1ccccc1)*

The assay deals with Growth factor receptor-bound protein 2 (Homo sapiens, UniProt P62993). The assay is described as follows: Inhibition of Grb2-SH2 domain binding to phospho-EGF receptor intracellular C-terminal domain.
Chain of Growth factor receptor-bound protein 2 (P62993 whole entry, the tested form may be a part): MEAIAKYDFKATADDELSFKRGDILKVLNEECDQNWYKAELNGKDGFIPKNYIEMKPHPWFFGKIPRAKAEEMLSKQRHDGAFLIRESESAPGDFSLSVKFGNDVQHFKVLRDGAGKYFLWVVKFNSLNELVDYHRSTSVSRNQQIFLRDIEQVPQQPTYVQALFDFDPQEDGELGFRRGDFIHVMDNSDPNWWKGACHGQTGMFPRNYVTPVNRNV
In the case of `CC[C@H](C)[C@H](NC(=O)[C@H](Cc1ccc(OP(=O)(O)O)cc1)NC(=O)[C@@H](N)CCC(=O)O)C(=O)N[C@@H](CC(N)=O)C(N)=O` (H-E[pY]IN-NH2), the pIC50 is 5.10. In the case of `CC[C@H](C)[C@H](NC(=O)[C@H](Cc1ccc(OP(=O)(O)O)cc1)NC(=O)OCc1ccccc1)C(=O)N[C@@H](CC(N)=O)C(N)=O` (Cbz-[pY]-Ile-Asn-NH2) it was 5.20; in that of `CC[C@H](C)[C@H](NC(=O)[C@@H](N)Cc1ccc(OP(=O)(O)O)cc1)C(=O)N[C@@H](CC(N)=O)C(N)=O` (H-[pY]-Ile-Asn-NH2), 4.24; in that of `CC[C@H](C)[C@H](NC(=O)[C@H](Cc1ccc(OP(=O)(O)O)cc1)NC(C)=O)C(=O)N[C@@H](CC(N)=O)C(N)=O` (Ac-[pY]-Ile-Asn-NH2), 5.06. The result for `CC[C@H](C)[C@H](NC(=O)[C@H](Cc1ccc(OP(=O)(O)O)cc1)NC(=O)[C@H](CCC(=O)O)NC(=O)c1ccccc1N)C(=O)N[C@@H](CC(N)=O)C(N)=O` (H-[2Abz]E[pY]IN-NH2) reads 7.66; that for `CC[C@H](C)[C@H](NC(=O)[C@H](Cc1ccc(OP(=O)(O)O)cc1)NC(=O)OCc1cccc(N)c1)C(=O)N[C@@H](CC(N)=O)C(N)=O`, 7.19.
